Test results from patent US5734012A, “Cyclic motilin-like polypeptides with gastrointestinal motor stimulating activity” (Ohmeda Pharmaceutical Products Division Inc., priority 1996, dated 1998).
Positions of bridges follow the written chain, without caps; N, C: chain ends. Non-standard residues stand in square brackets, D forms with d. Residues, ends and D or L forms follow the SMILES beside them. *: point of attachment. X1 = C[N+](C)(C)[C@@H](Cc1ccccc1)C(=O)*; NMeF = CN[C@@H](Cc1ccccc1)C(=O)O

Assays:
[1] = In vitro stability testing in 2% hog kidney homogenate; format: in vitro ADME; conditions: pig, kidney or brush border membranes, pH 7
Experimental: Like most small linear polypeptides, motilin is believed to be metabolized by the brush border cells of the kidney. Therefore, kidney homogenate was chosen as the model system for assessing the relative in vivo biostability of the peptides of this invention. All peptides to be studied were incubated in hog kidney (Pel Freeze, Inc., Rogers, Ark.) (2% w/v; final volume=4 mls; buffer=HEPES pH 7.0) at 25° C. […] In order to determine suitable incubation times and sampling intervals, two experiments were conducted with each polypeptide. The first run served as a rough estimate of peptide stability. All sampling was performed in duplicate. Sample volume was 180 μl. Sample clean-up was performed by addition of 20 μl of 100% TCA (final volume=200 μl; final TCA concentration=10%). The sample was vortexed from 5 to 10 seconds to ensure equilibration, then centrifuged to spin out the precipitated proteins. Analysis was carried out on a Waters HPLC system with autoinjector, a 5 μVydac C-18 analytical column, and a Waters 481 UV detector set at 214 nm. Injection volume was 80 μl. Initial solvent conditions were 20% acetonitrile / 80% (0.1%) TFA in Milli-Q water with a 35 minute gradient running to 63% acetonitrile / 37% (0.1%) TFA at 1 ml/min. Polypeptide substrate and metabolite peaks were ratioed to the internal standard and the duplicate sample ratios were averaged. The average ratio for the peptide substrate was expressed as a percentage and plotted versus time. First-order kinetics was assumed for data treatment. The rate of disappearance of the substrate was calculated using the Enzfitter program (Biosoft). Relative half-lives were determined from the relationship: […]

[2] = target: rabbit duodenal smooth muscle strip (Oryctolagus cuniculus, UniProt G1T803); experiment: Rabbit duodenal smooth muscle strip tissue bath assay (contractility); format: cell-based; conditions: negative logarithm of dose giving 50% of maximal response to motilin; isotonic contraction of rabbit duodenum segments
Chain of rabbit duodenal smooth muscle strip (G1T803 1-400): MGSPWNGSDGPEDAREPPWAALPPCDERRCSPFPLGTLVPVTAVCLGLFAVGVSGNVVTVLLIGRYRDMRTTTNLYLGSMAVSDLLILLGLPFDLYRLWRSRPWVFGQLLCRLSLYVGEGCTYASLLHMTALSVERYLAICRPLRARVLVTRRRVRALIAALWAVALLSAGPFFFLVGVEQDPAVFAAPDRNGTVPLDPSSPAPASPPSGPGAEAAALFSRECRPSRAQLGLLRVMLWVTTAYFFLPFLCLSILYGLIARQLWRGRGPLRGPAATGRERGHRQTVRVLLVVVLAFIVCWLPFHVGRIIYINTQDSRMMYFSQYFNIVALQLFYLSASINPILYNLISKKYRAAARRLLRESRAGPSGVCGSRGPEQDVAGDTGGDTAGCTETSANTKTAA
Experimental: The experimental protocol consisted of an equilibration period of 1 hour; a challenge with 10^-4 M acetylcholine followed by a wash-out period; a cumulative dose-response curve of a compound with, at the end, the addition of 10^-7 M motilin; and finally 10^-4 M acetylcholine. If the final response to 10^-4 M acetylcholine differed by more than 5% from the initial response, the results were discarded.

motilin receptor = target: T1, motilin receptor (Oryctolagus cuniculus, UniProt G1T803); experiment: Motilin receptor binding affinity (displacement of [125I-Tyr7,Nle13]motilin(porcine)); parameters: species or system rabbit; conditions: negative logarithm of concentration displacing 50% of [125I-Tyr7,Nle13]motilin(porcine) bound to rabbit antral smooth muscle membranes; read-out: pIC50 (converted)
T1 construct: from tissue; host or cells: rabbit antral smooth muscle membranes
T1 sequence (G1T803 1-400): as above
Experimental: The motilin receptor binding affinity of the peptides of this invention was determined by using the general procedure of Bormans, Peeters and Vantrappen, Regul. […] Fitting was performed using the iterative least-squares procedure of the SAS-software package (SAS Institute, Inc., Cary, N.C., USA).

[3] = in vivo; cited from earlier work

Row | half-life at 0.5 mg/ml [1] [h] | pEC50 [2] | IC50 (motilin receptor) [nM] | SMILES | half-life (t1/2) [3] [min]
1 | 0.583 | 8.73 | 0.912 | CC[C@H](C)[C@H](NC(=O)[C@@H]1CCCN1C(=O)[C@@H](NC(=O)[C@H](Cc1ccccc1)NC)C(C)C)C(=O)N[C@@H](Cc1ccccc1)C(=O)N[C@H](C(=O)N[C@@H](Cc1ccc(O)cc1)C(=O)NCC(=O)N[C@@H](CCC(=O)O)C(=O)N[C@H]1CCC(=O)NCCCC[C@@H](C(N)=O)NC(=O)[C@H](CC(C)C)NC(=O)[C@H](CCCNC(=N)N)NC(=O)[C@H](CCC(N)=O)NC1=O)[C@@H](C)O [SEQ ID NO:22, cyclo^10,14 [N-MePhe^1,Glu^10,Leu^13,Lys^14]pMOT(1-14) amide] (H-[NMeF]VPIFTYGEEQRLK-NH2; lactam 10-14) | –
2 | 1.42 | 7.72 | 2.88 | CC[C@H](C)[C@H](NC(=O)[C@@H]1CCCN1C(=O)[C@@H](NC(=O)[C@H](Cc1ccccc1)[N+](C)(C)C)C(C)C)C(=O)N[C@@H](Cc1ccccc1)C(=O)N[C@H](C(=O)N[C@@H](Cc1ccc(O)cc1)C(=O)NCC(=O)N[C@@H](CCC(=O)O)C(=O)N[C@H]1CC(=O)NCCCC[C@@H](C(=O)N[C@@H](CCCCN)C(N)=O)NC(=O)[C@H](CC(C)C)NC(=O)[C@@H](CCCNC(=N)N)NC(=O)[C@H](C)NC1=O)[C@@H](C)O [SEQ ID NO:19, cyclo^10,14 [ME3 N^+ Phe^1,Asp^10,Ala^11,D-Arg^12,Leu^13,Lys^14,Lys^15]pMOT(1-15) amide] (X1-VPIFTYGEDA[dR]LKK-NH2; lactam 9-13) | –
3 | 7.28 | 7.89 | 1.23 | CC[C@H](C)[C@H](NC(=O)[C@@H]1CCCN1C(=O)[C@@H](NC(=O)[C@H](Cc1ccccc1)[N+](C)(C)C)C(C)C)C(=O)N[C@@H](Cc1ccccc1)C(=O)N[C@H](C(=O)N[C@@H](Cc1ccc(O)cc1)C(=O)NCC(=O)N[C@@H](CCC(=O)O)C(=O)N[C@H]1CC(=O)NCCCC[C@@H](C(=O)N[C@H](CCCCN)C(N)=O)NC(=O)[C@H](CC(C)C)NC(=O)[C@H](CCCNC(=N)N)NC(=O)[C@H](C)NC1=O)[C@@H](C)O [SEQ ID NO:11, cyclo^10,14 [Me3 N^+ Phe^1,Asp^10,Ala^11,Leu^13,Lys^14,D-Lys^15]pMOT(1-15) amide] (X1-VPIFTYGEDARLK[dK]-NH2; lactam 9-13) | –
4 | 0.267 | 7.81 | 1.74 | CC[C@H](C)[C@H](NC(=O)[C@@H]1CCCN1C(=O)[C@@H](NC(=O)[C@H](Cc1ccccc1)NC)C(C)C)C(=O)N[C@@H](Cc1ccccc1)C(=O)N[C@H](C(=O)N[C@@H](Cc1ccc(O)cc1)C(=O)NCC(=O)N[C@@H](CCC(=O)O)C(=O)N[C@H]1CC(=O)NCCCC[C@@H](C(=O)N[C@@H](CCCCN)C(N)=O)NC(=O)[C@H](CC(C)C)NC(=O)[C@@H](CCCNC(=N)N)NC(=O)[C@H](C)NC1=O)[C@@H](C)O [SEQ ID NO:12, cyclo^10,14 [N-MePhe^1,Asp^10,Ala^11,D-Arg^12,Leu^13,Lys^14,Lys^15]pMOT(1-15) amide] (H-[NMeF]VPIFTYGEDA[dR]LKK-NH2; lactam 10-14) | –
5 | 0.817 | 7.34 | 1.55 | CC[C@H](C)[C@H](NC(=O)[C@@H]1CCCN1C(=O)[C@@H](NC(=O)[C@H](Cc1ccccc1)[N+](C)(C)C)C(C)C)C(=O)N[C@@H](Cc1ccccc1)C(=O)N[C@H](C(=O)N[C@@H](Cc1ccc(O)cc1)C(=O)NCC(=O)N[C@@H](CCC(=O)O)C(=O)N[C@H]1CCC(=O)NCCCC[C@@H](C(=O)N[C@@H](CCCCN)C(N)=O)NC(=O)[C@H](CC(C)C)NC(=O)[C@@H](CCCNC(=N)N)NC(=O)[C@H](C)NC1=O)[C@@H](C)O [SEQ ID NO:20, cyclo^10,14 [Me3 N^+ Phe^1,Glu^10,Ala^11,D-Arg^12,Leu^13,Lys^14,Lys^15]pMOT(1-15) amide] (X1-VPIFTYGEEA[dR]LKK-NH2; lactam 9-13) | –
6 | 4.45 | 7.76 | 1.35 | CC[C@H](C)[C@H](NC(=O)[C@@H]1CCCN1C(=O)[C@@H](NC(=O)[C@H](Cc1ccccc1)[N+](C)(C)C)C(C)C)C(=O)N[C@@H](Cc1ccccc1)C(=O)N[C@H](C(=O)N[C@@H](Cc1ccc(O)cc1)C(=O)NCC(=O)N[C@@H](CCC(=O)O)C(=O)N[C@H]1CCC(=O)NCCCC[C@@H](C(=O)N[C@@H](CCCCN)C(N)=O)NC(=O)[C@H](CC(C)C)NC(=O)[C@H](CCCNC(=N)N)NC(=O)[C@H](C)NC1=O)[C@@H](C)O [SEQ ID NO:21, cyclo^10,14 [Me3 N^+ Phe^1,Glu^10,Ala^11,Leu^13,Lys^14,Lys^15]pMOT(1-15) amide] (X1-VPIFTYGEEARLKK-NH2; lactam 9-13) | –
7 | – | – | – | CC[C@H](C)[C@H](NC(=O)[C@@H]1CCCN1C(=O)[C@@H](NC(=O)[C@@H](N)Cc1ccccc1)C(C)C)C(=O)N[C@@H](Cc1ccccc1)C(=O)N[C@H](C(=O)N[C@@H](Cc1ccc(O)cc1)C(=O)NCC(=O)N[C@@H](CCC(=O)O)C(=O)N[C@@H](CC(C)C)C(=O)N[C@@H](CCC(N)=O)C(=O)N[C@@H](CCCNC(=N)N)C(=O)N[C@@H](CCSC)C(=O)N[C@@H](CCC(N)=O)C(=O)N[C@@H](CCC(=O)O)C(=O)N[C@@H](CCCCN)C(=O)N[C@@H](CCC(=O)O)C(=O)N[C@@H](CCCNC(=N)N)C(=O)N[C@@H](CC(N)=O)C(=O)N[C@@H](CCCCN)C(=O)NCC(=O)N[C@@H](CCC(N)=O)C(=O)O)[C@@H](C)O [motilin] | 4.5
8 | 1.72 | 6.98 | 2.24 | CC[C@H](C)[C@H](NC(=O)[C@@H]1CCCN1C(=O)[C@@H](NC(=O)[C@H](Cc1ccccc1)[N+](C)(C)C)C(C)C)C(=O)N[C@@H](Cc1ccccc1)C(=O)N[C@H](C(=O)N[C@@H](Cc1ccc(O)cc1)C(=O)NCC(=O)N[C@@H](CCC(=O)O)C(=O)N[C@H]1CC(=O)NCCCC[C@@H](C(N)=O)NC(=O)[C@H](CC(C)C)NC(=O)[C@H](CCCNC(=N)N)NC(=O)[C@H](C)NC1=O)[C@@H](C)O [SEQ ID NO:16, cyclo^10,14 [Me3 N^+ Phe^1,Asp^10,Ala^11 Leu^13,Lys^14]pMOT(1-14) amide] (X1-VPIFTYGEDARLK-NH2; lactam 9-13) | –
9 | 0.65 | 7.68 | 1.02 | CC[C@H](C)[C@H](NC(=O)[C@@H]1CCCN1C(=O)[C@@H](NC(=O)[C@H](Cc1ccccc1)NC)C(C)C)C(=O)N[C@@H](Cc1ccccc1)C(=O)N[C@H](C(=O)N[C@@H](Cc1ccc(O)cc1)C(=O)NCC(=O)N[C@@H](CCC(=O)O)C(=O)N[C@H]1CCC(=O)NCCCC[C@@H](C(=O)N[C@@H](CCCCN)C(N)=O)NC(=O)[C@H](CC(C)C)NC(=O)[C@@H](CCCNC(=N)N)NC(=O)[C@H](C)NC1=O)[C@@H](C)O [SEQ ID NO:15, cyclo^10,14 [N-MePhe^1,Glu^10,Ala^11,D-Arg^12,Leu^13,Lys^14,Lys^15]pMOT(1-15) amide] (H-[NMeF]VPIFTYGEEA[dR]LKK-NH2; lactam 10-14) | –
10 | 6.88 | 7.72 | 1.78 | CC[C@H](C)[C@H](NC(=O)[C@@H]1CCCN1C(=O)[C@@H](NC(=O)[C@H](Cc1ccccc1)[N+](C)(C)C)C(C)C)C(=O)N[C@@H](Cc1ccccc1)C(=O)N[C@H](C(=O)N[C@@H](Cc1ccc(O)cc1)C(=O)NCC(=O)N[C@@H](CCC(=O)O)C(=O)N[C@H]1CC(=O)NCCCC[C@@H](C(=O)N[C@@H](CCCCN)C(N)=O)NC(=O)[C@H](CC(C)C)NC(=O)[C@H](CCCNC(=N)N)NC(=O)[C@H](C)NC1=O)[C@@H](C)O [SEQ ID NO:18, cyclo^10,14 [Me3 N^+ Phe^1,Asp^10,Ala^11,Leu^13,Lys^14,Lys^15]pMOT(1-15) amide] (X1-VPIFTYGEDARLKK-NH2; lactam 9-13) | –
